Eight compounds from ChEMBL document CHEMBL1128810, “Glutamine-derived aldehydes for the inhibition of human rhinovirus 3C protease” (Bioorg Med Chem Lett, 1995) can be followed below.

SMILES strings stand for the structures. Where a SMILES comes first, the peptide text is derived from it. The star is where a group is joined. Boc = CC(C)(C)OC(=O)* Some results are limits rather than exact numbers.

In experiment [1] the test system is Nucleic Acid. Briefly: In vitro ability to selectively inhibit the translation of rhinoviral RNA in translation assay. The format is functional. The settings on record: Human rhinovirus sp.
Experiment [2] addresses T1, Human rhinovirus A protease (Human rhinovirus sp., UniProt Q4U254).
T1 sequence (Q4U254 whole entry): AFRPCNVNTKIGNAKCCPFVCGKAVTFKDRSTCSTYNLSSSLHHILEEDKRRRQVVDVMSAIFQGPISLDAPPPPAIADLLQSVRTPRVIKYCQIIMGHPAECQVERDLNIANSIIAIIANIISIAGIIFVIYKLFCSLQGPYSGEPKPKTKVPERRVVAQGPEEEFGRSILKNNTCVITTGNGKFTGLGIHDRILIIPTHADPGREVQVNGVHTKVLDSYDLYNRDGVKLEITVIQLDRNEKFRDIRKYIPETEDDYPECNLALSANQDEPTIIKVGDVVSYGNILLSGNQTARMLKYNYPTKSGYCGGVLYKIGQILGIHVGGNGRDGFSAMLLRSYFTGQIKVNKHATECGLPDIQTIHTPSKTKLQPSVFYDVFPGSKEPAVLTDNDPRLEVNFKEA
The experiment can be described thus: Inhibitory activity against human rhinovirus-14 Protease 3C. Also noted: species or system rhinovirus B14.

Another experiment concerns rhinovirus B14. The experiment can be described thus: Inhibitory activity against human rhinovirus-14 in cell culture. The format is functional. The settings on record: Rhinovirus B; read-out: ED50 (the source's name).
In experiment [3] the test system is Nucleic Acid. The experiment can be described thus: In vitro ability to selectively inhibit the translation of rhinoviral RNA in translation assay; Toxic. The settings on record: Human rhinovirus sp. The format is functional.

In the experiment on Nucleic Acid [1], `CC(C)CC(=O)N[C@@H](Cc1ccccc1)C(=O)N[C@H](C=O)CCC(N)=O` displayed an Activity of over 200 µM. Besides, the IC50 in experiment [2] is over 80 µM.

For `CC(C)(C)OC(=O)N[C@@H](Cc1ccccc1)C(=O)N[C@H](C=O)CCC(N)=O`, the IC50 in experiment [2] was over 80 µM.

Consider `CC(=O)NCC(=O)N[C@@H](Cc1ccccc1)C(=O)N[C@H](C=O)CCC(N)=O` (Ac-Gly-Phe-Gln-aldehyde), for which the half-maximal inhibitory concentration (IC50) in experiment [2] stood at 16 µM.

In the experiment with Nucleic Acid [1], `CC(=O)N[C@@H](CC(C)C)C(=O)N[C@@H](Cc1ccccc1)C(=O)N[C@H](C=O)CCC(N)=O` (Ac-Leu-Phe-Gln-aldehyde) registered an Activity of 170 µM. This compound also gave an IC50 in experiment [2] of 2.7 µM.

`CC(C)C[C@H](NC(=O)OC(C)(C)C)C(=O)N[C@@H](Cc1ccccc1)C(=O)N[C@H](C=O)CCC(N)=O` (Boc-Leu-Phe-Gln-aldehyde) had an IC50 in experiment [2] of over 80 µM.

`CC(C)C[C@H](NC(=O)[C@@H](NC(=O)OC(C)(C)C)C(C)C)C(=O)N[C@@H](Cc1ccccc1)C(=O)NCC=O` (Boc-VLFG-aldehyde) gave an Activity in the experiment on Nucleic Acid [1] of 180 µM. Besides, the half-inhibitory concentration (IC50) in experiment [2] is 10 µM.

In the experiment on Nucleic Acid [1], `CC(C)C[C@H](NC(=O)[C@@H](NC(=O)OC(C)(C)C)C(C)C)C(=O)N[C@@H](Cc1ccccc1)C(=O)N[C@H](C=O)CCC(N)=O` (Boc-VLFQ-aldehyde) showed an Activity of 10 µM. For the same compound, the EC50 in the experiment on rhinovirus B14 came out at 500 µM. For the same compound, 0.6 µM corresponded to half-maximal inhibition in experiment [2] (IC50).

As to `CC(C)C[C@H](N)C(=O)N[C@@H](Cc1ccccc1)C(=O)N[C@H](C=O)CCC(N)=O` (H-Leu-Phe-Gln-aldehyde), the Activity result in the experiment on Nucleic Acid [3] was “Toxic”. It took 1 µM to reach half-maximal inhibition in experiment [2] (IC50).

For orientation: IC50 means the concentration that inhibits the measured activity by half.
